Test results from patent US9738902B2, “Modified PYR/PYL receptors activated by ligands” (priority 2013, dated 2017).

Key:
Assay type in all cases: cell-based
PYR1 K59R E94A Y120A = target: T1, PYR1 K59R E94A Y120A (Arabidopsis thaliana, UniProt O49686, E94A/K59R/Y120A); test: Y2H Combinatorial Mutagenesis Screen I (HAB1, X-gal)
T1 construct: expressed in transfected cells; host or cells: S. cerevisiae Y190 two-hybrid reporter strain
From the text: (§1) This screening approach yielded mutants at ligand contacting residues that alter sensitivity to specific ligands. We reasoned that receptor sensitivity could be improved by systematically constructing combinations of the best mutant variants identified in the first round of screening. To test this, we constructed mutant combinations using the strongest mutations identified for mandipropamid, benzothiadiazole, benoxacor or fludioxonil sensitivity. The mutations selected for combinatorial mutagenesis are listed in bold type in Table 1; The mutant combinations were constructed using the QuickChange Lightning Multi Site-Directed PCR Mutagenesis kit (Agilent, USA) using pBD-PYR1^K59R template DNA and mutagenic primers, essentially as previously described (Mosquna et al., 2011). The mutant combinations were sequence validated, introduced into the pACT-HAB1 Y190 reporter strain and then tested for responsiveness to a range of compound concentrations (100, 50, 25, 10, 1, 0.2, 0.1 or 0 μM each test compound). These efforts yielded double mutant receptor variants with improved sensitivity for the 4 compound/receptor pairs examined (see entries labeled “Combinatorial Mutagenesis Screen I” in Table 1).

PYR1 K59R Y120A E141Y = target: T2, PYR1 K59R Y120A E141Y (Arabidopsis thaliana, UniProt O49686, E141Y/K59R/Y120A); test: as above
T2 construct: expressed in transfected cells; host or cells: S. cerevisiae Y190 two-hybrid reporter strain
From the text: as §1

PYR1 K59R Y120A N167C = target: T3, PYR1 K59R Y120A N167C (Arabidopsis thaliana, UniProt O49686, K59R/N167C/Y120A); test: as above
T3 construct: expressed in transfected cells; host or cells: S. cerevisiae Y190 two-hybrid reporter strain
From the text: as §1

PYR1 K59R E94A N167C = target: T4, PYR1 K59R E94A N167C (Arabidopsis thaliana, UniProt O49686, E94A/K59R/N167C); test: as above
T4 construct: expressed in transfected cells; host or cells: S. cerevisiae Y190 two-hybrid reporter strain
From the text: as §1

PYR1 K59R N167V = target: T5, PYR1 K59R N167V (Arabidopsis thaliana, UniProt O49686, K59R/N167V); test: Y2H Pocket Library Screen (HAB1, X-gal)
T5 construct: expressed in transfected cells; host or cells: S. cerevisiae Y190 two-hybrid reporter strain
Protocol: (§2) The set of 475 mutant plasmids were individually transformed into the Y190 yeast two hybrid reporter strain co-transformed with pACT-HAB1, as previously described (Park et al., 2009). The yeast strains generated were arrayed into 96-well plates yielding what we refer to as the “pocket library”. The pocket library strains were spotted onto agar plates containing selective synthetic dextrose (minus Leu & Trp) medium that was supplemented with a single test compound at 100 μM. The pocket library strains were separately tested for responsiveness to the following compounds: dichlobenil, benzothiadiazole, mandipropamid, fludioxonil, and benoxacor. After incubating test plates at 30° C. for two days, colonies were chloroform lysed and stained to reveal β-galactosidase expression levels, using previously described methods (Park et al., 2009). Mutants displaying responsiveness to the test compound, if present, were identified by virtue of X-gal staining and then subjected to subsequent optimization efforts. Using this approach we identified mutations that conferred detectable sensitivity to the compounds tested (see entries labeled “Pocket Library Screens” in Table 1).

PYR1 K59R V81Y = target: T6, PYR1 K59R V81Y (Arabidopsis thaliana, UniProt O49686, K59R/V81Y); test: Y2H Pocket Library Screen (HAB1, X-gal)
T6 construct: expressed in transfected cells; host or cells: S. cerevisiae Y190 yeast two-hybrid reporter strain
Protocol: as §2

PYR1 K59R M158V = target: T7, PYR1 K59R M158V (Arabidopsis thaliana, UniProt O49686, K59R/M158V); test: Y2H Pocket Library Screen (HAB1, X-gal)
T7 construct: expressed in transfected cells; host or cells: S. cerevisiae Y190 two-hybrid reporter strain
Protocol: as §2

PYR1 K59R Y120F = target: T8, PYR1 K59R Y120F (Arabidopsis thaliana, UniProt O49686, K59R/Y120F); test: Y2H Pocket Library Screen (HAB1, X-gal)
T8 construct: expressed in transfected cells; host or cells: S. cerevisiae Y190 two-hybrid reporter strain
Protocol: as §2

PYR1 K59R V81I = target: T9, PYR1 K59R V81I (Arabidopsis thaliana, UniProt O49686, K59R/V81I); test: Y2H Pocket Library Screen (HAB1, X-gal)
T9 construct: expressed in transfected cells; host or cells: S. cerevisiae Y190 yeast two-hybrid reporter strain
Protocol: as §2

PYR1 K59R E94D = target: T10, PYR1 K59R E94D (Arabidopsis thaliana, UniProt O49686, E94D/K59R); test: Y2H Pocket Library Screen (HAB1, X-gal)
T10 construct: expressed in transfected cells; host or cells: S. cerevisiae Y190 yeast two-hybrid reporter strain
Protocol: as §2

PYR1 K59R E94A = target: T11, PYR1 K59R E94A (Arabidopsis thaliana, UniProt O49686, E94A/K59R); test: Y2H Pocket Library Screen (HAB1, X-gal)
T11 construct: expressed in transfected cells; host or cells: S. cerevisiae Y190 yeast two-hybrid reporter strain
Protocol: as §2

PYR1 K59R F159V = target: T12, PYR1 K59R F159V (Arabidopsis thaliana, UniProt O49686, F159V/K59R); test: Y2H Pocket Library Screen (HAB1, X-gal)
T12 construct: expressed in transfected cells; host or cells: S. cerevisiae Y190
Protocol: as §2

PYR1 K59R E94S = target: T13, PYR1 K59R E94S (Arabidopsis thaliana, UniProt O49686, E94S/K59R); test: Y2H Pocket Library Screen (HAB1, X-gal)
T13 construct: expressed in transfected cells; host or cells: S. cerevisiae Y190 yeast two-hybrid reporter strain
Protocol: as §2

PYR1 K59R L87P = target: T14, PYR1 K59R L87P (Arabidopsis thaliana, UniProt O49686, K59R/L87P); test: Y2H Pocket Library Screen (HAB1, X-gal)
T14 construct: expressed in transfected cells; host or cells: S. cerevisiae Y190 yeast two-hybrid reporter strain
Protocol: as §2

PYR1 K59R T162W = target: T15, PYR1 K59R T162W (Arabidopsis thaliana, UniProt O49686, K59R/T162W); test: Y2H Pocket Library Screen (HAB1, X-gal)
T15 construct: expressed in transfected cells; host or cells: S. cerevisiae Y190
Protocol: as §2

PYR1 K59R V83L = target: T16, PYR1 K59R V83L (Arabidopsis thaliana, UniProt O49686, K59R/V83L); test: Y2H Pocket Library Screen (HAB1, X-gal)
T16 construct: expressed in transfected cells; host or cells: S. cerevisiae Y190 yeast two-hybrid reporter strain
Protocol: as §2

PYR1 K59R E141Y = target: T17, PYR1 K59R E141Y (Arabidopsis thaliana, UniProt O49686, E141Y/K59R); test: Y2H Pocket Library Screen (HAB1, X-gal)
T17 construct: expressed in transfected cells; host or cells: S. cerevisiae Y190 two-hybrid reporter strain
Protocol: as §2

PYR1 K59R N167C = target: T18, PYR1 K59R N167C (Arabidopsis thaliana, UniProt O49686, K59R/N167C); test: Y2H Pocket Library Screen (HAB1, X-gal)
T18 construct: expressed in transfected cells; host or cells: S. cerevisiae Y190 two-hybrid reporter strain
Protocol: as §2

PYR1 K59R M158T = target: T19, PYR1 K59R M158T (Arabidopsis thaliana, UniProt O49686, K59R/M158T); test: Y2H Pocket Library Screen (HAB1, X-gal)
T19 construct: expressed in transfected cells; host or cells: S. cerevisiae Y190 two-hybrid reporter strain
Protocol: as §2

PYR1 K59R F108L = target: T20, PYR1 K59R F108L (Arabidopsis thaliana, UniProt O49686, F108L/K59R); test: Y2H Pocket Library Screen (HAB1, X-gal)
T20 construct: expressed in transfected cells; host or cells: S. cerevisiae Y190 yeast two-hybrid reporter strain
Protocol: as §2

PYR1 K59R F159A = target: T21, PYR1 K59R F159A (Arabidopsis thaliana, UniProt O49686, F159A/K59R); test: Y2H Pocket Library Screen (HAB1, X-gal)
T21 construct: expressed in transfected cells; host or cells: S. cerevisiae Y190 two-hybrid reporter strain
Protocol: as §2

PYR1 K59R A160C = target: T22, PYR1 K59R A160C (Arabidopsis thaliana, UniProt O49686, A160C/K59R); test: Y2H Pocket Library Screen (HAB1, X-gal)
T22 construct: expressed in transfected cells; host or cells: S. cerevisiae Y190
Protocol: as §2

PYR1 K59R V164K = target: T23, PYR1 K59R V164K (Arabidopsis thaliana, UniProt O49686, K59R/V164K); test: Y2H Pocket Library Screen (HAB1, X-gal)
T23 construct: expressed in transfected cells; host or cells: S. cerevisiae Y190
Protocol: as §2

PYR1 K59R M158I = target: T24, PYR1 K59R M158I (Arabidopsis thaliana, UniProt O49686, K59R/M158I); test: Y2H Pocket Library Screen (HAB1, X-gal)
T24 construct: expressed in transfected cells; host or cells: S. cerevisiae Y190 two-hybrid reporter strain
Protocol: as §2

PYR1 K59R Y120M = target: T25, PYR1 K59R Y120M (Arabidopsis thaliana, UniProt O49686, K59R/Y120M); test: Y2H Pocket Library Screen (HAB1, X-gal)
T25 construct: expressed in transfected cells; host or cells: S. cerevisiae Y190 two-hybrid reporter strain
Protocol: as §2

PYR1 K59R L87F = target: T26, PYR1 K59R L87F (Arabidopsis thaliana, UniProt O49686, K59R/L87F); test: Y2H Pocket Library Screen (HAB1, X-gal)
T26 construct: expressed in transfected cells; host or cells: S. cerevisiae Y190 yeast two-hybrid reporter strain
Protocol: as §2

PYR1 K59R N167H = target: T27, PYR1 K59R N167H (Arabidopsis thaliana, UniProt O49686, K59R/N167H); test: Y2H Pocket Library Screen (HAB1, X-gal)
T27 construct: expressed in transfected cells; host or cells: S. cerevisiae Y190 two-hybrid reporter strain
Protocol: as §2

PYR1 K59R S92F = target: T28, PYR1 K59R S92F (Arabidopsis thaliana, UniProt O49686, K59R/S92F); test: Y2H Pocket Library Screen (HAB1, X-gal)
T28 construct: expressed in transfected cells; host or cells: S. cerevisiae Y190 yeast two-hybrid reporter strain
Protocol: as §2

PYR1 K59R Y120A = target: T29, PYR1 K59R Y120A (Arabidopsis thaliana, UniProt O49686, K59R/Y120A); test: Y2H Pocket Library Screen (HAB1, X-gal)
T29 construct: expressed in transfected cells; host or cells: S. cerevisiae Y190 two-hybrid reporter strain
Protocol: as §2

PYR1 K59R Y120G = target: T30, PYR1 K59R Y120G (Arabidopsis thaliana, UniProt O49686, K59R/Y120G); test: Y2H Pocket Library Screen (HAB1, X-gal)
T30 construct: expressed in transfected cells; host or cells: S. cerevisiae Y190 two-hybrid reporter strain
Protocol: as §2

PYR1 K59R F159T = target: T31, PYR1 K59R F159T (Arabidopsis thaliana, UniProt O49686, F159T/K59R); test: Y2H Pocket Library Screen (HAB1, X-gal)
T31 construct: expressed in transfected cells; host or cells: S. cerevisiae Y190
Protocol: as §2

PYR1 K59R M158C = target: T32, PYR1 K59R M158C (Arabidopsis thaliana, UniProt O49686, K59R/M158C); test: Y2H Pocket Library Screen (HAB1, X-gal)
T32 construct: expressed in transfected cells; host or cells: S. cerevisiae Y190 two-hybrid reporter strain
Protocol: as §2

T16 sequence (O49686 whole entry K59R/V83L): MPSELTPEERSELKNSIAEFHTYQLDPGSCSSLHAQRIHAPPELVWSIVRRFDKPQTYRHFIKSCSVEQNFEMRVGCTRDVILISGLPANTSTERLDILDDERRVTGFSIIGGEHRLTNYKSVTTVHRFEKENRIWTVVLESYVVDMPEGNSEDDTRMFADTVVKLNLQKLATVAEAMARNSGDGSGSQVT
T16 sequence (Q9CAJ0 23-511, further chain): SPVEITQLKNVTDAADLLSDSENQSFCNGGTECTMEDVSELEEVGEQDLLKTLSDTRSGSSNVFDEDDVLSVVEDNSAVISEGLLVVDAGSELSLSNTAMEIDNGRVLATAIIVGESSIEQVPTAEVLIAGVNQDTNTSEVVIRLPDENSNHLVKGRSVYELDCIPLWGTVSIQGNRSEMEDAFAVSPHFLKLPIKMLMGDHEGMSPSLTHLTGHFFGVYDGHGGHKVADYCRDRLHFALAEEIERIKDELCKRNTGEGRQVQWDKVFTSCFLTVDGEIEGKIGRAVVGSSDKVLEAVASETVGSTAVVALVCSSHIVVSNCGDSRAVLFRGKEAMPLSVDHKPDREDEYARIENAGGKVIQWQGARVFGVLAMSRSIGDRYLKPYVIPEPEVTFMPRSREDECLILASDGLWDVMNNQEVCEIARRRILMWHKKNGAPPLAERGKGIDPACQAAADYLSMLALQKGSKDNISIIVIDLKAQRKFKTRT
T29 sequence (O49686 whole entry K59R/Y120A): as the sequence (O49686 whole entry K59R/V83L) above, with L83V, Y120A counted along it
T29 sequence (Q9CAJ0 23-511 partner): as the sequence (Q9CAJ0 23-511, further chain) above
T20 sequence (O49686 whole entry K59R/F108L): as the sequence (O49686 whole entry K59R/V83L) above, with L83V, F108L counted along it
T20 sequence (Q9CAJ0 23-511 partner): as the sequence (Q9CAJ0 23-511, further chain) above
T22 sequence (O49686 whole entry K59R/A160C): as the sequence (O49686 whole entry K59R/V83L) above, with L83V, A160C counted along it
T22 sequence (Q9CAJ0 23-511 partner): as the sequence (Q9CAJ0 23-511, further chain) above
T28 sequence (O49686 whole entry K59R/S92F): as the sequence (O49686 whole entry K59R/V83L) above, with L83V, S92F counted along it
T28 sequence (Q9CAJ0 23-511 partner): as the sequence (Q9CAJ0 23-511, further chain) above
T15 sequence (O49686 whole entry K59R/T162W): as the sequence (O49686 whole entry K59R/V83L) above, with L83V, T162W counted along it
T15 sequence (Q9CAJ0 23-511, further chain): as the sequence (Q9CAJ0 23-511, further chain) above
T26 sequence (O49686 whole entry K59R/L87F): as the sequence (O49686 whole entry K59R/V83L) above, with L83V, L87F counted along it
T26 sequence (Q9CAJ0 23-511, further chain): as the sequence (Q9CAJ0 23-511, further chain) above

N#Cc1c[nH]cc1-c1cccc2c1OC(F)(F)O2 [Fludioxonil, fludioxonil]
Threshold (PYR1 K59R E94A Y120A): 10 µM | Threshold (PYR1 K59R Y120A E141Y): 10 µM | Threshold (PYR1 K59R Y120A N167C): 10 µM | Threshold (PYR1 K59R E94A N167C): 10 µM | Threshold (PYR1 K59R N167V): 100 µM | Threshold (PYR1 K59R V81Y): 100 µM | Threshold (PYR1 K59R M158V): 100 µM | Threshold (PYR1 K59R Y120F): 100 µM | Threshold (PYR1 K59R V81I): 100 µM | Threshold (PYR1 K59R E94D): 100 µM | Threshold (PYR1 K59R E94A): 1 µM | Threshold (PYR1 K59R F159V): 100 µM | Threshold (PYR1 K59R E94S): 100 µM | Threshold (PYR1 K59R L87P): 100 µM | Threshold (PYR1 K59R T162W): 100 µM | Threshold (PYR1 K59R V83L): 100 µM | Threshold (PYR1 K59R E141Y): 100 µM | Threshold (PYR1 K59R N167C): 100 µM | Threshold (PYR1 K59R M158T): 100 µM | Threshold (PYR1 K59R F108L): 100 µM | Threshold (PYR1 K59R F159A): 100 µM | Threshold (PYR1 K59R A160C): 100 µM | Threshold (PYR1 K59R V164K): 100 µM | Threshold (PYR1 K59R M158I): 100 µM | Threshold (PYR1 K59R Y120M): 100 µM | Threshold (PYR1 K59R L87F): 100 µM | Threshold (PYR1 K59R N167H): 100 µM | Threshold (PYR1 K59R S92F): 100 µM | Threshold (PYR1 K59R Y120A): 100 µM | Threshold (PYR1 K59R Y120G): 100 µM | Threshold (PYR1 K59R F159T): 100 µM | Threshold (PYR1 K59R M158C): 100 µM
